According to the NIST ThermoML archive (doi:10.1021/je900672g):
Numbers after ± are expanded uncertainties.

test: isobaric coefficient of expansion; settings: 348.15 K; 5000 kPa; Liquid; DSC

Row | Structure (SMILES) | isobaric coefficient of expansion
1 | N#Cc1ccccc1 [benzonitrile] | 0.00087 ± 2.1e-05 1/K
2 | O=[N+]([O-])c1ccccc1 [nitrobenzene] | 0.000852 ± 2.1e-05 1/K
3 | CC[N+](=O)[O-] [nitroethane] | 0.00126 ± 3.1e-05 1/K
4 | C[N+](=O)[O-] [nitromethane] | 0.00138 ± 3.4e-05 1/K
5 | CCC#N [propanenitrile] | 0.0015 ± 3.7e-05 1/K

same assay, conditions: 348.15 K; 10000 kPa; Liquid; DSC

Row | Structure (SMILES) | isobaric coefficient of expansion
6 | CCC[N+](=O)[O-] [1-nitropropane] | 0.00117 ± 2.9e-05 1/K
7 | N#Cc1ccccc1 [benzonitrile] | 0.00085 ± 2.1e-05 1/K
8 | O=[N+]([O-])c1ccccc1 [nitrobenzene] | 0.000827 ± 2e-05 1/K
9 | CC[N+](=O)[O-] [nitroethane] | 0.00121 ± 3e-05 1/K
10 | C[N+](=O)[O-] [nitromethane] | 0.00132 ± 3.2e-05 1/K
11 | CCC#N [propanenitrile] | 0.00141 ± 3.5e-05 1/K

same assay, conditions: 348.15 K; 15000 kPa; Liquid; DSC

Row | Structure (SMILES) | isobaric coefficient of expansion
12 | CCC[N+](=O)[O-] [1-nitropropane] | 0.00111 ± 2.7e-05 1/K
13 | N#Cc1ccccc1 [benzonitrile] | 0.000832 ± 2e-05 1/K
14 | O=[N+]([O-])c1ccccc1 [nitrobenzene] | 0.000811 ± 2e-05 1/K
15 | CC[N+](=O)[O-] [nitroethane] | 0.00117 ± 2.9e-05 1/K
16 | C[N+](=O)[O-] [nitromethane] | 0.00127 ± 3.1e-05 1/K
17 | CCC#N [propanenitrile] | 0.00133 ± 3.3e-05 1/K

same assay, conditions: 348.15 K; 20000 kPa; Liquid; DSC

Row | Structure (SMILES) | isobaric coefficient of expansion
18 | CCC[N+](=O)[O-] [1-nitropropane] | 0.00107 ± 2.6e-05 1/K
19 | N#Cc1ccccc1 [benzonitrile] | 0.000818 ± 2e-05 1/K
20 | O=[N+]([O-])c1ccccc1 [nitrobenzene] | 0.000794 ± 1.9e-05 1/K
21 | CC[N+](=O)[O-] [nitroethane] | 0.00112 ± 2.8e-05 1/K
22 | C[N+](=O)[O-] [nitromethane] | 0.00122 ± 3e-05 1/K
23 | CCC#N [propanenitrile] | 0.00127 ± 3.1e-05 1/K

same assay, conditions: 348.15 K; 25000 kPa; Liquid; DSC

Row | Structure (SMILES) | isobaric coefficient of expansion
24 | CCC[N+](=O)[O-] [1-nitropropane] | 0.00103 ± 2.5e-05 1/K
25 | N#Cc1ccccc1 [benzonitrile] | 0.000802 ± 2e-05 1/K
26 | O=[N+]([O-])c1ccccc1 [nitrobenzene] | 0.00078 ± 1.9e-05 1/K
27 | CC[N+](=O)[O-] [nitroethane] | 0.0011 ± 2.7e-05 1/K
28 | C[N+](=O)[O-] [nitromethane] | 0.00119 ± 2.9e-05 1/K
29 | CCC#N [propanenitrile] | 0.00122 ± 3e-05 1/K

same assay, conditions: 348.15 K; 30000 kPa; Liquid; DSC

Row | Structure (SMILES) | isobaric coefficient of expansion
30 | CCC[N+](=O)[O-] [1-nitropropane] | 0.000996 ± 2.4e-05 1/K
31 | N#Cc1ccccc1 [benzonitrile] | 0.000788 ± 1.9e-05 1/K
32 | O=[N+]([O-])c1ccccc1 [nitrobenzene] | 0.000764 ± 1.9e-05 1/K
33 | CC[N+](=O)[O-] [nitroethane] | 0.00107 ± 2.6e-05 1/K
34 | C[N+](=O)[O-] [nitromethane] | 0.00115 ± 2.8e-05 1/K
35 | CCC#N [propanenitrile] | 0.00117 ± 2.9e-05 1/K

same assay, conditions: 348.15 K; 35000 kPa; Liquid; DSC

Row | Structure (SMILES) | isobaric coefficient of expansion
36 | CCC[N+](=O)[O-] [1-nitropropane] | 0.000967 ± 2.4e-05 1/K
37 | N#Cc1ccccc1 [benzonitrile] | 0.000774 ± 1.9e-05 1/K
38 | O=[N+]([O-])c1ccccc1 [nitrobenzene] | 0.00075 ± 1.8e-05 1/K
39 | CC[N+](=O)[O-] [nitroethane] | 0.00104 ± 2.5e-05 1/K
40 | C[N+](=O)[O-] [nitromethane] | 0.00112 ± 2.7e-05 1/K
41 | CCC#N [propanenitrile] | 0.00113 ± 2.8e-05 1/K

same assay, conditions: 348.15 K; 40000 kPa; Liquid; DSC

Row | Structure (SMILES) | isobaric coefficient of expansion
42 | CCC[N+](=O)[O-] [1-nitropropane] | 0.000932 ± 2.3e-05 1/K
43 | N#Cc1ccccc1 [benzonitrile] | 0.000761 ± 1.9e-05 1/K
44 | O=[N+]([O-])c1ccccc1 [nitrobenzene] | 0.000734 ± 1.8e-05 1/K
45 | CC[N+](=O)[O-] [nitroethane] | 0.00101 ± 2.5e-05 1/K
46 | C[N+](=O)[O-] [nitromethane] | 0.00108 ± 2.6e-05 1/K
47 | CCC#N [propanenitrile] | 0.00108 ± 2.6e-05 1/K

same assay, conditions: 348.15 K; 45000 kPa; Liquid; DSC

Row | Structure (SMILES) | isobaric coefficient of expansion
48 | CCC[N+](=O)[O-] [1-nitropropane] | 0.000915 ± 2.2e-05 1/K
49 | N#Cc1ccccc1 [benzonitrile] | 0.000749 ± 1.8e-05 1/K
50 | O=[N+]([O-])c1ccccc1 [nitrobenzene] | 0.000721 ± 1.8e-05 1/K
51 | CC[N+](=O)[O-] [nitroethane] | 0.000989 ± 2.4e-05 1/K
52 | C[N+](=O)[O-] [nitromethane] | 0.00106 ± 2.6e-05 1/K
53 | CCC#N [propanenitrile] | 0.00105 ± 2.6e-05 1/K

same assay, conditions: 348.15 K; 50000 kPa; Liquid; DSC

Row | Structure (SMILES) | isobaric coefficient of expansion
54 | CCC[N+](=O)[O-] [1-nitropropane] | 0.000894 ± 2.2e-05 1/K
55 | N#Cc1ccccc1 [benzonitrile] | 0.000737 ± 1.8e-05 1/K
56 | O=[N+]([O-])c1ccccc1 [nitrobenzene] | 0.000711 ± 1.7e-05 1/K
57 | CC[N+](=O)[O-] [nitroethane] | 0.000966 ± 2.4e-05 1/K
58 | C[N+](=O)[O-] [nitromethane] | 0.00103 ± 2.5e-05 1/K
59 | CCC#N [propanenitrile] | 0.00103 ± 2.5e-05 1/K

same assay, conditions: 348.15 K; 55000 kPa; Liquid; DSC

Row | Structure (SMILES) | isobaric coefficient of expansion
60 | CCC[N+](=O)[O-] [1-nitropropane] | 0.000879 ± 2.2e-05 1/K
61 | O=[N+]([O-])c1ccccc1 [nitrobenzene] | 0.000701 ± 1.7e-05 1/K
62 | CC[N+](=O)[O-] [nitroethane] | 0.000947 ± 2.3e-05 1/K
63 | C[N+](=O)[O-] [nitromethane] | 0.00102 ± 2.5e-05 1/K
64 | CCC#N [propanenitrile] | 0.00101 ± 2.5e-05 1/K
